Assay results: patent publication US6737383B1, “Herbicidal oxadiazolidines” (priority 1999, dated 2004)

Legend:
[1] = test system: bedstraw; assay: Test B pre/postemergence bedstraw; assay type: in vivo, Galium aparine
Procedure, shortened: (§1)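 Test chemicals in a non-phytotoxic solvent mixture with surfactant were sprayed preemergence onto planted seeds and postemergence onto plants 2 to 18 cm tall (1- to 4-leaf stage). After twelve to sixteen days in a greenhouse, injury was visually rated against untreated controls from 0 (no effect) to 10 (complete control).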

[2] = test system: blackgrass; assay: Test B pre/postemergence blackgrass; assay type: in vivo, Alopecurus myosuroides
Procedure, shortened: as §1

[3] = test system: surinam grass; assay: Test B pre/postemergence surinam grass; assay type: in vivo, Brachiaria decumbens
Procedure, shortened: as §1

[4] = test system: cocklebur; assay: Test B pre/postemergence cocklebur; assay type: in vivo, Xanthium strumarium
Procedure, shortened: as §1

[5] = test system: corn; assay: Test B pre/postemergence corn; assay type: in vivo, Zea mays
Procedure, shortened: as §1

[6] = test system: giant foxtail; assay: Test B pre/postemergence giant foxtail; assay type: in vivo, Setaria faberii
Procedure, shortened: as §1

[7] = test system: morningglory; assay: Test B pre/postemergence morningglory; assay type: in vivo, Ipomoea hederacea
Procedure, shortened: as §1

[8] = test system: pigweed; assay: Test B pre/postemergence pigweed; assay type: in vivo, Amaranthus retroflexus
Procedure, shortened: as §1

[9] = test system: rape; assay: Test B pre/postemergence rape; assay type: in vivo, Brassica napus
Procedure, shortened: as §1

[10] = test system: soybean; assay: Test B pre/postemergence soybean; assay type: in vivo, Glycine max
Procedure, shortened: as §1

[11] = test system: sugar beet; assay: Test B pre/postemergence sugar beet; assay type: in vivo, Beta vulgaris
Procedure, shortened: as §1

[12] = test system: velvetleaf; assay: Test B pre/postemergence velvetleaf; assay type: in vivo, Abutilon theophrasti
Procedure, shortened: as §1

[13] = test system: purple nutsedge; assay: Test B pre/postemergence purple nutsedge; assay type: in vivo, Cyperus rotundus
Procedure, shortened: as §1

[14] = test system: smallflower flatsedge; assay: Test B flood test smallflower flatsedge; assay type: in vivo, Cyperus difformis
Procedure, shortened: (§2)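 Plants were grown to the 2-leaf stage before treatment with test chemical, then held in a greenhouse for twelve to sixteen days. Injury was visually rated against untreated controls on a 0–10 scale, where 0 is no effect and 10 is complete control.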

[15] = test system: duck salad; assay: Test B flood test duck salad; assay type: in vivo, Heteranthera limosa
Procedure, shortened: as §2

[16] = test system: bamyardgrass; assay: Test B flood test barnyardgrass; assay type: in vivo, Echinochloa crus-galli
Procedure, shortened: as §2

[17] = Postemergence, Rate 62 g/ha, scale 0 to 10, 0 is no effect, 10 is complete control
[18] = Postemergence, Rate 125 g/ha, scale of 0 to 10 where 0 is no effect and 10 is complete control
[19] = Postemergence, Rate 250 g/ha, scale of 0 to 10, 0 is no effect, 10 is complete control
[20] = Preemergence, Rate 125 g/ha, scale of 0 to 10 where 0 is no effect and 10 is complete control
[21] = Postemergence, Rate 500 g/ha, scale of 0 to 10 where 0 is no effect and 10 is complete control
[22] = Preemergence, Rate 62 g/ha, scale of 0 to 10 where 0 is no effect and 10 is complete control
[23] = Preemergence, Rate 250 g/ha, scale 0 to 10 (0 no effect, 10 complete control)
[24] = Preemergence, Rate 500 g/ha, scale of 0 to 10 where 0 is no effect and 10 is complete control
[25] = Rate 62 g/ha, flood test species, Pre-emergence, visual evaluation after twelve to sixteen days
[26] = Rate 125 g/ha, under heading Pre-emergence, flood test species, visual evaluation after twelve to sixteen days
[27] = Rate 250 g/ha, Pre-emergence (flood test species), scale 0 to 10, 0 is no effect, 10 is complete control
[28] = Rate 500 g/ha, Pre-emergence section of Table B, 0 to 10 scale (0 no effect, 10 complete control)

In the case of `C=C(Cl)Cn1c(=O)on(C(=O)N(c2ccc(F)cc2F)C(C)C)c1=O` [Compound 634], the “Plant response rating, Bedstraw” value [1, 17] is reported as 0, the “Plant response rating, Bedstraw” value [1, 18] is reported as 0 and the “Bedstraw plant response rating” value [1, 19] is reported as 0. For the same compound, the “Bedstraw plant response rating” value [1, 20] was 0, the “Plant response rating, Blackgrass” value [2, 17] was 2 and the “Plant response rating, Blackgrass” value [2, 18] was 6. The “Blackgrass plant response rating” value [2, 19] was 8, the “Plant response rating, Blackgrass” value [2, 21] was 8 and the “Blackgrass plant response rating” value [2, 22] was 4. The “Blackgrass plant response rating” value [2, 20] was 6, the “Plant response rating, Blackgrass” value [2, 23] was 8 and the “Plant response rating, Blackgrass” value [2, 24] was 9. The “Plant response rating, B. signalgrass” value [3, 17] was 0, the “Plant response rating, B. signalgrass” value [3, 18] was 0 and the “B. signalgrass plant response rating” value [3, 19] was 0. The “Plant response rating, B. signalgrass” value [3, 21] was 5, the “B. signalgrass plant response rating” value [3, 22] was 1 and the “B. signalgrass plant response rating” value [3, 20] was 5. For the same compound, the “Plant response rating, B. signalgrass” value [3, 23] was 7, the “Plant response rating, B. signalgrass” value [3, 24] was 10 and the “Plant response rating, Cocklebur” value [4, 17] was 1. The “Plant response rating, Cocklebur” value [4, 18] was 1, the “Cocklebur plant response rating” value [4, 19] was 2 and the “Plant response rating, Cocklebur” value [4, 21] was 2. For the same compound, the “Cocklebur plant response rating” value [4, 22] was 0, the “Cocklebur plant response rating” value [4, 20] was 0 and the “Plant response rating, Cocklebur” value [4, 23] was 0. For the same compound, the “Plant response rating, Cocklebur” value [4, 24] was 0, the “Plant response rating, Corn” value [5, 17] was 0 and the “Plant response rating, Corn” value [5, 18] was 0. For the same compound, the “Corn plant response rating” value [5, 19] was 0, the “Plant response rating, Corn” value [5, 21] was 0 and the “Corn plant response rating” value [5, 22] was 0. For the same compound, the “Corn plant response rating” value [5, 20] was 0, the “Plant response rating, Corn” value [5, 23] was 0 and the “Plant response rating, Corn” value [5, 24] was 0. For the same compound, the “Plant response rating, Giant foxtail” value [6, 17] was 4, the “Plant response rating, Giant foxtail” value [6, 18] was 8 and the “Giant foxtail plant response rating” value [6, 19] was 9. The “Plant response rating, Giant foxtail” value [6, 21] was 9, the “Giant foxtail plant response rating” value [6, 22] was 9 and the “Giant foxtail plant response rating” value [6, 20] was 10. The “Plant response rating, Giant foxtail” value [6, 23] was 10, the “Plant response rating, Giant foxtail” value [6, 24] was 10 and the “Plant response rating, Morningglory” value [7, 17] was 1. For the same compound, the “Plant response rating, Morningglory” value [7, 18] was 1, the “Morningglory plant response rating” value [7, 19] was 2 and the “Plant response rating, Morningglory” value [7, 21] was 2. For the same compound, the “Morningglory plant response rating” value [7, 22] was 0, the “Morningglory plant response rating” value [7, 20] was 0 and the “Plant response rating, Morningglory” value [7, 23] was 0. The “Plant response rating, Morningglory” value [7, 24] was 0, the “Plant response rating, Redroot pigweed” value [8, 17] was 1 and the “Plant response rating, Redroot pigweed” value [8, 18] was 2. For the same compound, the “Redroot pigweed plant response rating” value [8, 19] was 2, the “Redroot pigweed plant response rating” value [8, 22] was 0 and the “Redroot pigweed plant response rating” value [8, 20] was 4. The “Plant response rating, Redroot pigweed” value [8, 23] was 10, the “Plant response rating, Redroot pigweed” value [8, 24] was 10 and the “Plant response rating, Rape” value [9, 17] was 0. The “Plant response rating, Rape” value [9, 18] was 0, the “Rape plant response rating” value [9, 19] was 0 and the “Plant response rating, Rape” value [9, 21] was 0. For the same compound, the “Rape plant response rating” value [9, 22] was 0, the “Rape plant response rating” value [9, 20] was 2 and the “Plant response rating, Rape” value [9, 23] was 6. The “Plant response rating, Rape” value [9, 24] was 7, the “Plant response rating, Soybean” value [10, 17] was 3 and the “Plant response rating, Soybean” value [10, 18] was 2. The “Soybean plant response rating” value [10, 19] was 3, the “Soybean plant response rating” value [10, 22] was 0 and the “Soybean plant response rating” value [10, 20] was 0. The “Plant response rating, Soybean” value [10, 23] was 0, the “Plant response rating, Soybean” value [10, 24] was 0 and the “Plant response rating, Sugarbeets” value [11, 17] was 0. The “Plant response rating, Sugarbeets” value [11, 18] was 0, the “Sugarbeets plant response rating” value [11, 19] was 0 and the “Sugarbeets plant response rating” value [11, 22] was 0. For the same compound, the “Sugarbeets plant response rating” value [11, 20] was 0, the “Plant response rating, Sugarbeets” value [11, 23] was 5 and the “Plant response rating, Sugarbeets” value [11, 24] was 6. For the same compound, the “Plant response rating, Velvetleaf” value [12, 17] was 0, the “Plant response rating, Velvetleaf” value [12, 18] was 0 and the “Velvetleaf plant response rating” value [12, 19] was 3. For the same compound, the “Velvetleaf plant response rating” value [12, 22] was 0, the “Velvetleaf plant response rating” value [12, 20] was 0 and the “Plant response rating, Velvetleaf” value [12, 23] was 4. For the same compound, the “Plant response rating, Velvetleaf” value [12, 24] was 6, the “Plant response rating, Nutsedge” value [13, 17] was 0 and the “Plant response rating, Nutsedge” value [13, 18] was 0. For the same compound, the “Plant response rating, Nutsedge” value [13, 21] was 0, the “Nutsedge plant response rating” value [13, 22] was 0 and the “Nutsedge plant response rating” value [13, 20] was 0. For the same compound, the “Plant response rating, Nutsedge” value [13, 23] was 0, the “Plant response rating, Nutsedge” value [13, 24] was 0 and the “Plant response rating, S. Flatsedge (0 to 10 scale, 0 is no effect, 10 is complete control)” value [14, 25] was 0. For the same compound, the “S. Flatsedge plant response rating (0 to 10 scale, 0 is no effect, 10 is complete control)” value [14, 26] was 0, the “S. Flatsedge plant response rating” value [14, 27] was 0 and the “S. Flatsedge plant response rating” value [14, 28] was 0. For the same compound, the “Plant response rating, Ducksalad (0 to 10 scale, 0 is no effect, 10 is complete control)” value [15, 25] was 0, the “Ducksalad plant response rating (0 to 10 scale, 0 is no effect, 10 is complete control)” value [15, 26] was 0 and the “Ducksalad plant response rating” value [15, 27] was 0. For the same compound, the “Ducksalad plant response rating” value [15, 28] was 0, the “Plant response rating, Barnyardgrass (0 to 10 scale, 0 is no effect, 10 is complete control)” value [16, 25] was 0 and the “Barnyardgrass plant response rating (0 to 10 scale, 0 is no effect, 10 is complete control)” value [16, 26] was 0. The “Barnyardgrass plant response rating” value [16, 27] was 0 and the “Barnyardgrass plant response rating” value [16, 28] was 0.
